Measured values as given in patent US9701709B2 (REATA PHARMACEUTICALS, INC., priority 2012, dated 2017).
Marks after values point to notes of the source that are not given here.

What was measured:
Format in all cases: physicochemical
[1] = Approximate solubility by manual dilution; conditions: r.t.
Description: The approximate solubility of the PP415-P1 starting material was measured in twelve solvents and four solvent mixtures at r.t. by manual dilution combined with visual observation (Table 10). Due to the experimental error inherent in this method, the solubility values are intended to be regarded as rough estimates and are to be used solely for the design of crystallization experiments. All solvent mixtures are listed as ratios by volume (v/v).
Approximate Solubility Determination: Approximate solubilities were determined by a stepwise dilution of a suspension of about 10 mg of substance in 0.05 mL of solvent. […] Due to the experimental error inherent in this method, the solubility values are intended to be regarded as rough estimates and are to be used solely for the design of crystallization experiments.

[2] = Chemical stability in solvents and aqueous surfactant media (HPLC); conditions: diluent 0.1% formic acid in MeCN, within ~24 hours; start 99.9%
Description: The chemical stability of the amorphous form was investigated in different solvents over the course of seven days.
Solutions/suspensions with a concentration of 1 mg/mL were prepared in four organic solvents (acetone, MeOH, MeCN, EtOAc) and three aqueous surfactant media (1% aq. SDS, 1% aq. Tween 80, 1% aq. CTAB).
Four separate solutions/suspensions were prepared for each solvent, equilibrated for 6 h, 24 h, 2 d, and 7 d and subsequently analyzed by HPLC.
Due to this effect, the samples measured towards the end of the sequence (set up in the following order: 7 d, 2 d, 24 h, 6 h), might be affected and the obtained area-% might be underestimated.
Four samples of 1.0 mg of the PP415-P1 material in 1.0 mL of the respective solvent were prepared. The resulting suspensions/solutions were equilibrated in a temperature-controlled Eppendorf Thermomixer Comfort shaker for 7 d, 2 d, 24 h, and 6 h at 25° C. at a shaking rate of 500 rpm. If necessary, the solid phase was separated by filter centrifugation (0.5-μm PVDF membrane). The filtrates were diluted in the diluent (0.1% formic acid in MeCN) to concentrations≦0.2 mg/mL (unknown and likely lower for suspensions) and examined using the HPLC method given in Table 29. As reference, the PP415-P1 material was diluted in the diluent to a concentration of 0.25 mg/mL and added to the beginning and end of the HPLC sequence.

[3] = Storage stability of the amorphous form (PXRD)
Description: To learn more about its fundamental properties and physical stability, the amorphous form of 63415 was stressed by storage at elevated temperatures and relative humidities.
Samples of the amorphous form (the PP415-P1 starting material) were stored open at 25° C./˜62% r.h. (over saturated aqueous solution of NH4NO3) and 40° C./˜75% r.h. (over saturated aqueous solution of NaCl) and closed at 60° C. and 80° C. (Table 12). At time points 0 w, 1 w, 2 w, and 4 w the samples were examined by PXRD and compared to the starting material, PP415-P1.

[4] = Dynamic vapor sorption (hygroscopicity)
Description: Projekt Messtechnik Sorptions Prüfsystem SPS 11-100n or Surface Measurement Systems DVS-1. The sample was placed on an aluminum or platinum holder on top of a microbalance and allowed to equilibrate for 2 h at 50% r.h. before starting the pre-defined humidity program: • (1) 50→0% r.h. (5%/h); 5 h at 0% r.h. • (2) 0→95% r.h. (5%/h); 5 h at 95% r.h. • (3) 95→50% r.h. (5%/h); 2 h at 50% r.h.

[5] = Polymorph screen: crystallization and drying experiments (FT-Raman, PXRD, TG-FTIR, DSC)
Description: A preformulation and polymorphism study was performed for compound 63415. […] A total of 30 crystallization experiments, including phase equilibrations, drying experiments and other techniques, were carried out. All obtained solids were characterized by FT-Raman spectroscopy. All new forms were characterized by PXRD and TG-FTIR, and optionally by DSC and DVS.
All obtained materials were characterized by FT-Raman spectroscopy; selected samples were also characterized by PXRD.
Suspension equilibration experiments were carried out in one solvent and eleven solvent mixtures (Table 13). Suspensions of ˜100 mg of PP415-P1 in 0.2-2.0 mL of the selected solvents were prepared and shaken for 4-15 days at 22-24° C. The solids were recovered and characterized by FT-Raman spectroscopy; most were characterized also by PXRD.
Hot solutions of PP415-P1 were prepared in one solvent and four solvent mixtures (Table 14). […] In two cases (-P22, -P23) no solid precipitated, even after storage at 4-5° C. for two days. Here, the solvent was evaporated under N2 flow at r.t. The solids were recovered and characterized by FT-Raman spectroscopy and for those with spectra different from the amorphous starting material, FT-Raman class 1, also by PXRD.
Clear solutions of PP415-P1 were prepared in three solvent mixtures (Table 15). The solvents were then slowly evaporated at r.t. under ambient conditions. However, in two of the three experiments (-P15 and -P17) white solid precipitated before evaporation began. The obtained solids were examined by FT-Raman spectroscopy and PXRD.
At least one sample of each class was dried under vacuum with the aim to desolvate the solvates and to obtain non-solvated crystalline forms of 63415 (Table 16). The dried materials were characterized further by FT-Raman, PXRD, and TG-FTIR.
Bruker RFS100 with OPUS 6.5 software; Nd:YAG 1064-nm excitation, Ge detector, 3500-100 cm^−1 range; typical measurement conditions: 100-300 mW nominal laser power, 64-128 scans, 2 cm^−1 resolution.
Stoe Stadi P; Mythen1K Detector; Cu—Kα radiation; standard measurement conditions: transmission; 40 kV and 40 mA tube power; curved Ge monochromator; 0.02°2θ step size, 12 s or 60 s step time, 1.5-50.5°2θ or 1.0-55°2θ scanning range; detector mode: step scan; 1°2θ or 6°2θ detector step; standard sample preparation: 10 to 20 mg sample was placed between two acetate foils; sample holder: Stoe transmission sample holder; the sample was rotated during the measurement.
Netzsch Thermo-Microbalance TG 209 with Bruker FT-IR Spectrometer Vector 22; aluminum crucible (with microhole), N2 atmosphere, 10 K/min heating rate, 25-250° C. or 25-350° C. range.
Perkin Elmer DSC 7; gold crucibles (closed or with microhole), sample filled in an N2 environment, 10 K/min heating rate, −50 to 250° C. or 350° C. range, at times quench cooling (at −200 K/min) to −50° C. between scans.

For `CC1(C)CC[C@]2(NC(=O)C(C)(F)F)CC[C@]3(C)[C@H](C(=O)C=C4[C@@]5(C)C=C(C#N)C(=O)C(C)(C)[C@@H]5CC[C@]43C)[C@@H]2C1` [PP415-P1], which “Solubility S” value ([1]; DCM) is on record?
Its value is “S > 200 mg/mL”.

And the “Solubility S” value ([1]; DEE, dissolved completely overnight)?
The value was “S > 1^d mg/mL”.

What about the “Solubility S” value ([1]; DMF) of the same molecule?
The value was “S > 210 mg/mL”.

What about the “Solubility S” value ([1]; EtOAc) of the same molecule?
The value was “S > 210 mg/mL”.

What about the “Solubility S” value ([1]; H2O) of the same molecule?
The value was “S < 1 mg/mL”.

What about the “Solubility S” value ([1]; MeCN) of the same molecule?
The value was “S > 230 mg/mL”.

What about the “Solubility S” value ([1]; MeCN/H2O (2:3)) of the same molecule?
Its value is “S < 1 mg/mL”.

And the “Solubility S” value ([1]; MeOH)?
Its value is “S < 210 mg/mL”.

And the “Solubility S” value ([1]; acetone)?
Its value is “S > 230 mg/mL”.

And the “Solubility S” value ([1]; heptane)?
Its value is “S < 1 mg/mL”.

What about the “Solubility S” value ([1]; toluene) of the same molecule?
The value was “S > 200 mg/mL”.

And the “Solubility S” value ([1]; toluene/DEE (1:1), precipitation after ~1d)?
The value was “S > 220 mg/mL”.

What about the “area-% of reference sample at end of HPLC sequence, 242 nm” value [2] of the same molecule?
Its value is 99.5%.

What about the “area-% of reference sample at end of HPLC sequence, 254 nm” value [2] of the same molecule?
The value was 99.3%.

What about the “PXRD Result after storage” value ([3]; closed, 60° C., 1 w) of the same molecule?
Its value is “amorphous”.

And the “PXRD Result after storage” value ([3]; closed, 60° C., 2 w)?
The value was “amorphous”.

What about the “PXRD Result after storage” value ([3]; closed, 60° C., 4 w) of the same molecule?
Its value is “amorphous”.

And the “PXRD Result after storage” value ([3]; closed, 80° C., 1 w)?
Its value is “amorphous”.

And the “PXRD Result after storage” value ([3]; closed, 80° C., 2 w)?
The value was “amorphous”.

And the “PXRD Result after storage” value ([3]; closed, 80° C., 4 w)?
The value was “amorphous”.

And the “PXRD Result after storage” value ([3]; open, 25° C./~62% r.h., 1 w)?
Its value is “amorphous”.

What about the “PXRD Result after storage” value ([3]; open, 25° C./~62% r.h., 2 w) of the same molecule?
Its value is “amorphous”.

What about the “PXRD Result after storage” value ([3]; open, 25° C./~62% r.h., 4 w) of the same molecule?
The value was “amorphous”.

And the “PXRD Result after storage” value ([3]; open, 40° C./~75% r.h., 1 w)?
The value was “amorphous”.

And the “PXRD Result after storage” value ([3]; open, 40° C./~75% r.h., 2 w)?
The value was “amorphous”.

What about the “PXRD Result after storage” value ([3]; open, 40° C./~75% r.h., 4 w) of the same molecule?
The value was “amorphous”.

What about the “DVS: hygroscopicity class” value [4] of the same molecule?
The value was “DVS: slightly hygroscopic; Δm = (mass increase <2% but ≧0.2%)”.

And the “DVS: total mass gain from 0% r.h. to 95% r.h.” value ([4]; 0% r.h. to 95% r.h.)?
The value was “mass gain of 2.1 wt.-% from 0%”.

And the “DVS: Δm (50%→85% r.h.)” value ([4]; 50%→85% r.h.)?
The value was “+0.4% (50%→85% r.h.); total”.

What about the “Δm (50%→85% r.h.)” value ([4]; DVS) of the same molecule?
Its value is “+0.4%”.

What about the “post-DVS Raman and/or PXRD: solid form” value ([4]; after DVS) of the same molecule?
The value was “unchanged”.

What about the “Hygroscopicity classification (DVS)” value ([4]; mass gain at 85% r.h.) of the same molecule?
The value was “slightly hygroscopic (mass increase <2% but ≧0.2%)”.

And the “TG-FTIR: decomposition at T” value [5]?
The value was “decomposition at T > 290 °C”.

And the “DSC: Tg, 1st scan” value ([5]; 1st scan)?
The value was “DSC: 1st scan: Tg = 152.7 °C”.

What about the “DSC: Tg, 2nd scan” value ([5]; 2nd scan) of the same molecule?
Its value is “Tg = 149.7 °C (ΔCp = 0.45 J/g ° C.)”.

And the “TG-FTIR: mass loss (solvent)” value ([5]; first or main loss, solvent and temperature range per sample as printed)?
Its value is “TG-FTIR: loss of ~0.9 wt.-%”.
